Key:
[1] = test system: PLC-PRF5 cells; assay: Anti-tumor activity assay (IC50 value), cells counted after three days; format: cell-based; details: Homo sapiens, PLC-PRF-5, 72 h
From the text: (§1) The cells were counted with hemocytometer.

[2] = test system: shDFNA5 HepG2 cells; assay: Dose-response growth inhibition, GSDME knockdown cells; format: cell-based; details: Homo sapiens
Experimental: as §1
Briefly, the pLKO.1 or shRNA plasmids with psPAX2 and PMD2.G were transfected into HEK-293T cells via DNA transfection reagent (SignaGen®Laboratories, SL100688). And the cell supernatant contained Lenti-virus was collected after 24 hours. The Lenti-virus of shRNAs were used to infect the hepatic carcinoma cells and the stable-transfection cell lines were screened by puromycin (1 μg/mL) (Solarbio, P8230).

[3] = test system: HepG2 and SK-Hep1 cells; assay: LDH release assay; format: cell-based, human; details: 0-4 μM, three days
Experimental: The hepatic carcinoma cells were seeded in 96-well plates and treated with indole analogues for three days. Of note, the compounds were added into DMEM medium supplemented with 1% FBS. The cellular supernatant was collected for LDH release detection by using LDH cytotoxicity assay kit (Beyotime, C0016). Statistical analysis was combined with the cell viability data tested by WST-1 cell proliferation and cytotoxicity assay kit (Beyotime, C0035).

[4] = test system: GSDME; assay: Western blot of GSDME activation; format: cell-based, human; details: HepG2 and SK-Hep1 cells
Experimental: (§2) The whole-cell protein was extracted by RIPA lysis buffer contained with protease and phosphatase inhibitor cocktail (MCE, HY-K0010) from cells treated by indole analogues. Proteins were separated by sodium dodecyl sulfate-polyacrylamide gel electrophoresis (SDS-PAGE) gel, and then blotted onto polyvinylidene difluoride membrane (Millipore, IPVH00010). The membranes were incubated with the primary antibodies and the following horseradish peroxidase-conjugated (HRP) secondary antibodies. Next, membranes were washed and developed by ECL regent (Millipore, WBKLS0500).

[5] = test system: PERK; assay: Western blot of ER stress responders; format: cell-based, human; details: HepG2 and SK-Hep1 cells
Experimental: as §2

CC(C)[C@H](N)C(=O)NCCCn1cc(/C=C2\S/C(=N\c3ccc(N4CCOCC4)cc3)N(Cc3ccc(F)cc3)C2=O)c2ccccc21 [Tc3]
IC50 [1]: 1790 nM | IC50 [2]: 4.77 µM | LDH release levels [3]: highest LDH release | GSDME activation / cleavage (western blotting) [4]: promoted the cleavage of GSDME | PERK activation (western blotting) [5]: activated

Source: publication PMC11729550, “Discovery of indole analogue Tc3 as a potent pyroptosis inducer and identification of its combination strategy against hepatic carcinoma” (Theranostics, 2025)
